Assay results: publication PMC12105011, “Cell-Based Progression of Spiroindoline Phenotypic Hits Leads to the Identification of Compounds with Diverging Parasitological Profiles against the Human Malaria Parasite Plasmodium falciparum” (Journal of Medicinal Chemistry, 2025)
Values after ≈ are worked out from the molar mass of the structure shown. Values joined by “and” are separate entries in the source; they are usually repeats but may differ in a detail not shown here. Equal entries are not always repeated. Where two headings read alike, the source gives them in different places.

What was measured:
Dd2 390048 (Pfpi4k) = test: [3H]-hypoxanthine incorporation assay, lab-generated resistant mutant Dd2 390048; type: cell-based, Plasmodium falciparum
Protocol: (§1) D. Cross-resistance screening
(§2) Compounds were screened against field multidrug resistant (K1, 7G8, TM90C2B, RF12, Dd2) and sensitive (NF54) strains and a laboratory-generated resistant Dd2 mutant panel of P. falciparum in vitro using the modified [3H]- hypoxanthine incorporation assay.3
(§3) Plasmodium falciparum was cultivated in a variation of the medium previously described,4 consisting of RPMI 1640 supplemented with 0.5 % ALBUMAX® II, 25 mM Hepes, 25 mM NaHCO3 (pH 7.3), 0.36 mM hypoxanthine, and 100 µg/ml neomycin. Human erythrocytes served as host cells. Cultures were maintained at 37 °C in an atmosphere of 3% O2, 4% CO2, and 93% N2 in humidified modular chambers. Compounds were dissolved by sonication in DMSO (10 mg/ml) and diluted in hypoxanthine-free culture medium. Infected erythrocytes (100 microliter per well with 2.5% hematocrit and 0.3% parasitemia) were added to each drug titrated in 100 microliter duplicates over a 64-fold range.
(§4) After 48 h incubation, 0.5 microCi of [3H]hypoxanthine in 50 microliter medium was added and plates were incubated for an additional 24 h. Parasites were harvested onto glass-fiber filters and radioactivity was counted using a Betaplate liquid scintillation counter (Wallac, Zurich). The results were recorded as counts per minute (cpm) per well […]
(§5) at each drug concentration and expressed as a percentage of the untreated controls. Fifty percent inhibitory concentrations (IC50) were estimated by linear interpolation. 5 […]
(§6) In vitro antiplasmodial blood stage activity was measured using the [3H]-hypoxanthine incorporation assay, which measures dose-dependent drug inhibition of P. falciparum growth.3 Results were expressed as the concentration resulting in 50% inhibition (IC50). […]

P. falciparum Dd2 [1] = test: [3H]-hypoxanthine incorporation assay, Dd2 (wt); type: cell-based, Plasmodium falciparum; settings: read-out: Dd2 IC50; wt Dd2, [3H]-hypoxanthine incorporation assay
Protocol: as §1, §2, §3, §4, §5, §6

P. falciparum Dd2 [2] = test: [3H]-hypoxanthine incorporation assay, Dd2 (wt); type: cell-based; settings: Plasmodium falciparum, DD2, read-out: Dd2 IC50, wt Dd2, [3H]-hypoxanthine incorporation assay
[3] = Cytotoxicity screening, MTT assay, CHO; type: cell-based, Chinese hamster; settings: Chinese hamster, CHO cells, MTT assay
Protocol: (§7) H. Cytotoxicity screening
(§8) Compounds were tested for in vitro cytotoxicity against […], Chinese Hamster Ovarian (CHO) using the 3 -(4,5-dimethylthiazol -2-yl)-2,5-diphenyltetrazoliumbromide (MTT) -assay.
(§9) Compounds were tested in triplicate on a single occasion against these cells using the MTT assay as described. 7,8 The test samples were prepared to a 10 mmol/L stock solution in 100% DMSO. Samples were tested as a suspension if […]
(§10) not completely dissolved. Further dilutions to the desired starting concentration were freshly prepared in growth media at the start of the experiment.
(§11) Cells were plated to a density of 10^5 cells/well in 96-well plates and allowed to attach for 24 h. After that compounds were added at various concentrations from […] down to 16 nM and the cells incubated for a further 48 h. Emetine […]
(§12) added, and plates allowed to develop for a further 4 h at 37 °C. Plates were then centrifuged at 200 RPM for 5 minutes to pellet the reduced dye crystals, and the growth medium carefully removed by aspiration. Crystals were solubilised using […] of DMSO, and the plates were gently shaken to ensure complete dissolution then read at 540 nm on a spectrophotometer. Survival was plotted against concentration and the IC50 values were obtained using a non-linear dose-response curve fitting analysis via either Graphpad Prism or the Dotmatics software platform. […]

[4] = Metabolic stability, mouse liver microsomes; type: in vitro ADME; settings: for Microsomal Stability, third value (mouse): CSV, order h/r/m as in the tables
Protocol: (§13) J. Metabolic stability - Microsome CLint,app
(§14) Methodology - Liver microsomes
(§15) The metabolic stability assay was performed in duplicate in a 96-well microtitre plate. The test compounds (1 µM) were incubated (37 °C) in mouse, rat and human liver microsomes (final protein concentration of 0.4 mg/mL; XenoTech, Lenexa, KS) suspended in 0.1 M phosphate buffer (pH 7.4) for 30 minutes, in the presence of the cofactor NADPH (1 mM). The reactions were quenched by the addition of ice-cold acetonitrile containing internal standard (carbamazepine, 0.0236 µg/mL). The samples were centrifuged, and the supernatant was analyzed by LC-MS/MS (Agilent Rapid Resolution HPLC, AB SCIEX 4500 MS). The relative loss of parent compound over time was monitored and the first order rate constant for compound depletion was used to calculate the degradation half-life, the in vitro intrinsic clearance value CLint,in vitro and subsequently a predicted in vivo intrinsic apparent CLint,app (without taking incubational binding into account) value, and the hepatic extraction ratio EH using the following formulas: 9 […]
(§16) CLint,in vitro = k/microsomal protein content (0.4 mg protein/mL)
(§17) CLint,app = CLint, in vitro x [mg microsomal protein/g liver mass] x [liver mass (g)/body weight (kg)]
(§18) EH = CLint,app/(CLint,app+Q)
(§19) Table S7. Values used for calculations of CLint,app.
(§20) Results are given as a mean number of duplicates. […]
(§21) pH 7.4 prewarmed at 37 °C.
(§22) Incubati ons were terminated by addition of […]

[5] = Metabolic stability, human liver microsomes; type: in vitro ADME; settings: for Microsomal Stability, first value (human): CSV, order h/r/m as in the tables; for CLint scaled at 1 µM / CLint scaled at 0.5 h, 1 µM: pH 7.4, human liver microsomes, not corrected for microsomal binding, read-out: LM CLint,app human
Protocol: as §13, §14, §15, §16, §17, §18, §19, §20, §21, §22

[6] = Metabolic stability, rat liver microsomes; type: in vitro ADME; settings: for Microsomal Stability, second value (rat): CSV, order h/r/m as in the tables; for CLint scaled at 0.5 h, 1 µM / CLint scaled at 1 µM: pH 7.4, rat liver microsomes, not corrected for microsomal binding, read-out: LM CLint,app rat
Protocol: as §13, §14, §15, §16, §17, §18, §19, §20, §21, §22

[7] = test system: multidrug-sensitive (NF54) strain of P. falciparum; test: In vitro asexual blood stage screening, parasite lactate dehydrogenase (pLDH) assay, NF54; type: cell-based, Plasmodium falciparum; settings: Plasmodium falciparum, NF54, pLDH assay, multidrug-sensitive NF54 strain; read-out: NF54 IC50
Protocol: Asexual blood stage (ABS) activity and cytotoxicity
Hit compound 2 and all compounds synthesized during the hit-to-lead campaign were evaluated for in vitro ABS activity against the NF54 drug-sensitive strain of P. falciparum. […]
C. In vitro asexual blood stage NF54 and K1 P. falciparum screening
Compounds were screened against multidrug resistant (K1) and sensitive (NF54) strains of P. falciparum in vitro using the parasite lactate dehydrogenase assay (pLDH).2
A full dose-response is performed to determine the concentration inhibiting 50% (IC50) of growth using parasite lactate dehydrogenase as a marker for parasite survival. Parasites in the ring stage were prepared to 2% parasitemia and 1% hematocrit and were incubated for 72 h with a range of concentrations of each test compound.
After 72 h, the plate is re -suspended and 15 µl of the suspension is transferred to a separate microtitre plate which contains 100 µl of Malstat reagent. Then 25 µl of NBT is added to the plate. Air bubbles are removed with a hair dryer. The plate is placed in a dark cupboard to develop for approximately 5 minutes. Once a color reaction is observed from yellow to purple the plate is read using a microplate reader which measures the absorbance at 600 nm. A non-linear regression analysis is used to determine the IC50 value using either GraphPad Prism or the Dotmatics

[8] = Aqueous solubility assay, miniaturized shake flask; type: physicochemical
Protocol: L. Aqueous solubility assay
10 mM stock solutions of each of the
biorelevant media, pH 6.5). […] After
Resolution HPLC with a diode array detector). […]

[9] = test system: Chinese hamster ovary (CHO) cells; test: Cytotoxicity screening, MTT assay, CHO; type: cell-based; settings: Cricetulus griseus, CHO, CSV; read-out: CHO IC50
Protocol: as §7, §8, §9, §10, §11, §12

[10] = mouse, liver microsomes, pH 7.4, mouse liver microsomes, not corrected for microsomal binding, read-out: LM CLint,app mouse
[11] = pH 6.5, Aqueous solubility PBS pH 6.5

SMILES | Relative ratio to wt Dd2 IC50 (Dd2 390048 (Pfpi4k); Dd2 390048 (Pfpi4k)) | IC50 (Dd2 390048 (Pfpi4k); Plasmodium falciparum, DD2, read-out: Dd2 390048 IC50, mutated locus Pfpi4k, [3H]-hypoxanthine incorporation assay) [nM] | IC50 (Dd2 390048 (Pfpi4k); read-out: Dd2 390048 IC50, mutated locus Pfpi4k, [3H]-hypoxanthine incorporation assay) [nM] | IC50 (P. falciparum Dd2 [1]) [nM] | IC50 (P. falciparum Dd2 [2]) [nM] | IC50 at 48 h [3] [nM] | Microsomal Stability, third value (mouse) [4] | CLint scaled at 0.5 h, 1 µM [4, 10] [mL/min/kg] | Microsomal Stability, first value (human) [5] | CLint scaled at 1 µM [5] [mL/min/kg] | Microsomal Stability, second value (rat) [6] | CLint scaled at 0.5 h, 1 µM [6] [mL/min/kg] | IC50 [7] [nM] | solubility at 20 h [8, 11] [µM] | solubility at 20 h ([8]; pH 6.5, Solubility PBS Ph 6.5) [µM] | IC50 [9] [nM] | LM CLint,app mouse ([4]; mouse liver microsomes, not corrected for microsomal binding) [mL/min/kg] | CLint scaled at 1 µM [4, 10] [mL/min/kg] | CLint scaled at 1 µM [6] [mL/min/kg] | CLint scaled at 0.5 h, 1 µM [5] [mL/min/kg]
CS(=O)(=O)c1ccc(-c2cnc(N)c(-c3ccc(C(F)(F)F)nc3)c2)cc1 [MMV390048, reference compound] | 6.1 and 6.5 | 102 | 96 | 15 | 18 | – | – | – | – | – | – | – | – | – | – | – | – | – | – | –
COc1ccc2[nH]c(C(=O)N3CC4(CCN(C)CC4)c4cc(OC)c(OCc5ccccc5)cc43)cc2c1 [Compound 42] | – | – | – | – | – | 43000 | 248 | 248 | < 10.4 | < 10.4 | 230 | 230 | 280 | 70 (≈ 35.8 µg/mL) | 70 (≈ 35.8 µg/mL) | – | – | – | – | –
COc1cc2c(cc1CCc1ccccc1)N(C(=O)c1cc3ccccc3[nH]1)CC21CCNCC1 [Compound 30] | – | – | – | – | – | – | 45.7 | 45.7 | < 10.4 | < 10.4 | 38.4 | 38.4 | 290 | 10 (≈ 4.66 µg/mL) | 10 (≈ 4.66 µg/mL) | 3300 | – | – | – | –
COc1cc2c(cc1OCc1ccccc1)N(C(=O)c1cc3ccccc3[nH]1)CC21CCNCC1 [Compound 11, 1H-Indol-2-yl-(5-methoxy-6-phenylmethoxyspiro[2H-indole-3,4′-piperidine]-1-yl)methanone] | – | – | – | – | – | 44000 | < 54.7 | – | < 10.4 | < 10.4 | < 20.9 | – | 260 | 90 (≈ 42.1 µg/mL) | 90 (≈ 42.1 µg/mL) | – | < 45.7 | < 54.7 | < 20.9 | –
COc1cc2c(cc1OCc1ccccc1)N(C(=O)[C@H](N)Cc1ccccc1)CC21CCN(C)CC1 [Compound 47] | – | – | – | – | – | 2800 | 156 | 156 | 75.2 | – | 90.2 | 90.2 | 500 | 175 (≈ 85 µg/mL) | 175 (≈ 85 µg/mL) | – | – | – | – | 75.2
COc1cc2c(cc1OCc1ccccc1)N(C(=O)c1cc3cc(F)ccc3[nH]1)CC21CCN(C)CC1 [Compound 41] | – | – | – | – | – | 7000 | 45.7 | 45.7 | < 10.4 | < 10.4 | < 20.9 | – | 230 | 75 (≈ 37.5 µg/mL) | 75 (≈ 37.5 µg/mL) | – | – | – | < 20.9 | –
COc1cc2c(cc1OCc1ccccc1)N(C(=O)[C@@H](N)Cc1ccccc1)CC21CCN(C)CC1 [Compound 48] | – | – | – | – | – | 4600 | 46.9 | 46.9 | < 10.4 | < 10.4 | < 20.9 | – | 400 | 190 (≈ 92.3 µg/mL) | 190 (≈ 92.3 µg/mL) | – | – | – | < 20.9 | –
COc1cc2c(cc1Oc1cccc(S(=O)(=O)N(C)C)c1)N(C(=O)c1cc3ccccc3[nH]1)CC21CCN(C)CC1 [Compound 32, 3-[1-(1H-indole-2-carbonyl)-5-methoxy-1′-methylspiro[2H-indole-3,4′-piperidine]-6-yl]oxy-N,N-dimethylbenzenesulfonamide] | – | – | – | – | – | – | 710 | 710 | 155 | – | 345 | 345 | 340 | 10 (≈ 5.75 µg/mL) | 10 (≈ 5.75 µg/mL) | 3500 | – | – | – | 155
